Test results published in the supplement of paper PMC10307832.

What was measured:
Experiment in all cases: relative viability (nuclei count vs DMSO), 5 days (fraction); higher = more cells survive
[1] = compound: CO[C@H]1C[C@@H]2CC[C@@H](C)[C@@](O)(O2)C(=O)C(=O)N2CCCC[C@H]2C(=O)O[C@H]([C@H](C)C[C@@H]2CC[C@@H](OCCO)[C@H](OC)C2)CC(=O)[C@H](C)/C=C(\C)[C@@H](O)[C@@H](OC)C(=O)[C@H](C)C[C@H](C)/C=C/C=C/C=C/1C [Everolimus] + Cc1nc(NC(=O)N2CCC[C@H]2C(N)=O)sc1-c1ccnc(C(C)(C)C(F)(F)F)c1 [Alpelisib] (partner 2 µM)
Method in brief: (§1)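 A single step with final 0.05% Triton X-100, 1% formaldehyde and 1 ug/ml Hoechst fixed the cells and stained nuclei 5 days after treatment. Lung cancer cell lines in 1536-well plates had been treated by pin tool the day after seeding with one drug alone or a fixed anchor-drug dose plus five library-drug doses (not always all listed) in √10 steps, and nuclei were counted on 4× images. Relative viability is the ratio of nuclei in treated wells to nuclei in vehicle wells, taken as the median of duplicate plates.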

[2] = compound: CO[C@H]1C[C@@H]2CC[C@@H](C)[C@@](O)(O2)C(=O)C(=O)N2CCCC[C@H]2C(=O)O[C@H]([C@H](C)C[C@@H]2CC[C@@H](OCCO)[C@H](OC)C2)CC(=O)[C@H](C)/C=C(\C)[C@@H](O)[C@@H](OC)C(=O)[C@H](C)C[C@H](C)/C=C/C=C/C=C/1C [Everolimus] + CC(=O)c1c(C)c2cnc(Nc3ccc(N4CCNCC4)cn3)nc2n(C2CCCC2)c1=O [Palbociclib] (partner 0.5 µM)
Method in brief: as §1

[3] = compound: CO[C@H]1C[C@@H]2CC[C@@H](C)[C@@](O)(O2)C(=O)C(=O)N2CCCC[C@H]2C(=O)O[C@H]([C@H](C)C[C@@H]2CC[C@@H](OCCO)[C@H](OC)C2)CC(=O)[C@H](C)/C=C(\C)[C@@H](O)[C@@H](OC)C(=O)[C@H](C)C[C@H](C)/C=C/C=C/C=C/1C [Everolimus] + O=C(c1cc(Cc2n[nH]c(=O)c3ccccc23)ccc1F)N1CCN(C(=O)C2CC2)CC1 [Olaparib] (partner 8 µM)
Method in brief: as §1

[4] = compound: CO[C@H]1C[C@@H]2CC[C@@H](C)[C@@](O)(O2)C(=O)C(=O)N2CCCC[C@H]2C(=O)O[C@H]([C@H](C)C[C@@H]2CC[C@@H](OCCO)[C@H](OC)C2)CC(=O)[C@H](C)/C=C(\C)[C@@H](O)[C@@H](OC)C(=O)[C@H](C)C[C@H](C)/C=C/C=C/C=C/1C [Everolimus] + Nc1nc2[nH]cc(CCc3ccc(C(=O)N[C@@H](CCC(=O)O)C(=O)O)cc3)c2c(=O)[nH]1 [Pemetrexed] (partner 0.2 µM)
Method in brief: as §1

Cell Line	relative viability ([1]; first compound 0.01 µM)	relative viability ([1]; first compound 0.03162 µM)	relative viability ([1]; first compound 0.1 µM)	relative viability ([1]; first compound 0.3162 µM)	relative viability ([1]; first compound 1 µM)	relative viability ([2]; first compound 0.01 µM)	relative viability ([2]; first compound 0.03162 µM)	relative viability ([2]; first compound 0.1 µM)	relative viability ([2]; first compound 0.3162 µM)	relative viability ([2]; first compound 1 µM)	relative viability ([3]; first compound 0.01 µM)	relative viability ([3]; first compound 0.03162 µM)	relative viability ([3]; first compound 0.1 µM)	relative viability ([3]; first compound 0.3162 µM)	relative viability ([3]; first compound 1 µM)	relative viability ([4]; first compound 0.01 µM)	relative viability ([4]; first compound 0.03162 µM)	relative viability ([4]; first compound 0.1 µM)	relative viability ([4]; first compound 0.3162 µM)	relative viability ([4]; first compound 1 µM)
SK-LU-1	0.46	0.471	0.565	0.555	0.661	0.444	0.342	0.303	0.318	0.298	0.423	0.378	0.301	0.389	0.362	0.607	0.683	0.688	0.74	0.681
SK-MES-1	0.486	0.461	–	0.44	0.368	0.239	0.264	0.258	0.273	0.243	0.539	0.468	0.512	0.537	0.421	0.839	0.826	0.825	0.827	0.741
SW 1573	0.449	0.374	0.441	0.334	0.346	0.237	0.201	0.175	0.224	0.225	0.264	0.384	0.314	0.268	0.3	0.594	0.592	0.543	0.562	0.496
UMC-11	0.348	0.304	0.301	0.32	0.311	0.261	0.262	0.282	0.3	0.272	0.362	0.273	0.223	0.239	0.29	0.43	0.412	0.429	0.394	0.426
